Publication PMC5962729 (Frontiers in Pharmacology, 2018)
Like-named read-outs stand apart in the source and are kept apart here.

Experiments:
[1] = Pharmacokinetic study of YCHD components and phase II metabolites in normal rats (UHPLC-MS/MS, sulfatase enzymolysis); assay type: in vivo, rat; conditions: for Cmax / Tmax / CL/F / MRT inf / Vd/F / half-life: rat; for CL/F: read-out: CLz/F; for MRT inf: read-out: MRT (0-∞) (converted); for Vd/F: read-out: Vz/F; for half-life: read-out: t1/2z
Description: To explore the pharmacokinetic properties of YCHD following intragastric administration in rats, a rapid and sensitive method involving the use of UHPLC-MS/MS (Agilent 6460 series, Agilent Technologies, Santa Clara, CA, United States) was developed and validated for the simultaneous quantification of 10 active components of rat plasma. The quantification was conducted in ESI negative ionization mode, and the mass spectrometry conditions were as follows: capillary voltage, 3500 V; gas flow, 12 L/min; nebulizer, 40 psi; gas temperature, 350°C; and delta EMV (-), 400. A 5 μL extraction sample was injected into the column (Agilent SB-C18 column, 2.1 mm × 50 mm, 1.8 μm) and eluted at 0.4 mL/min with a gradient elution of water (with 0.4% v/v formic acid) (A) and acetonitrile (B) (0–3 min, 5–60% B; 3–5 min, 60–90% B; 5–5.1 min, 90–5% B; and re-equilibration for 3 min).
To each 50 μL plasma sample, 10 μL of internal standard solution (paeoniflorin, 1000 ng/mL) and 300 μL of a mixed solution of methanol and acetonitrile (v/v, 1:1; containing 1% formic acid) were added. Subsequently, the solution was vortex mixed for 5 min. After centrifugation at 15,000 rpm for 5 min, the supernatant was transferred completely into a tube, before being evaporated under N2 at 40°C. The residue was then dissolved in 50 μL of 50% methanol–water (v/v, 1:1) through vortexing for 5 min, after centrifugation at 15,000 rpm for 10 min. Finally, 5 μL of the supernatant sample was injected into the UHPLC-MS/MS system for analysis.
The rats were randomly divided into two groups (n = 5 for each group). […] After 24 h, the two groups of rats received a single oral dose of YCHD (12 g/kg). Blood was collected in heparinized tubes at 5, 15, 30, 45, 60, 120, 240, 360, 480, 720, and 1440 min after administration. The blood samples were centrifuged at 4000 rpm for 10 min, and the supernatant plasma was harvested. Plasma samples (50 μL) were immediately processed as outlined in Section “Chromatographic and Mass Spectrometry Conditions.”
Additional plasma samples (50 μL) were enzymatically hydrolyzed with 50 μL of enzyme solution (65.86 mg of sulfatase, dissolved in 2 mL of sodium acetate buffer, pH 5.0) for phase II metabolite quantification, in accordance with our previous study ([Ding et al., 2012]). After being vortex mixed for 5 min, the mixture was incubated at 37°C for 30 min and then returned to room temperature. Subsequently, the samples were processed as outlined in Section “Chromatographic and Mass Spectrometry Conditions” for UHPLC-MS/MS analysis. During routine analysis, each analytical run included six blank plasma samples, a set of calibration samples, a set of QC samples, and unknowns.
All data are presented as mean ± SD. A one-way analysis of variance was used to compare data between two groups using SPSS (Version 21.0). The differences were considered to be statistically significant when p < 0.05 and highly significant when p < 0.01 or p < 0.001. Pharmacokinetic data analysis was performed using DAS 2.1.1 software (Mathematical Pharmacology Professional Committee of China, Shanghai, China).
After sulfatase-aided enzymolysis, all the phase II metabolites could transform into their prototypes, including rhein, emodin, genipin, and capillarisin. The specific contents of the phase II metabolites of these components were detected indirectly by evaluating the content difference of their prototypes in samples after enzymolysis and before enzymolysis
CG = Ca −[MG × (CGG/MGG + CGe/MGe)]
Ca, CGG, and CGe represent the concentration of genipin, genipin-1-β-D-gentiobioside, and geniposide after enzymolysis of sulfatase, respectively. MG, MGG-, and MGe represent the mass of genipin, genipin-1-β-D-gentiobioside, and geniposide, respectively. The pharmacokinetic curves of phase II metabolites are illustrated in Figure 4B.

[2] = tested on: BSEP; assay: Expression level of BSEP in rat liver by UHPLC-MS/MS; assay type: in vivo
Description: (§1) Male Sprague Dawley rats (230 ± 20 g, 6–8 weeks of age) were purchased from B&K Laboratory Animal, Corp. Ltd. (Shanghai, China) and fed in the Laboratory Animal Center of Shanghai University of Traditional Chinese Medicine. All rats were allowed to acclimatize for 3 days before experimentation. The rats were randomly divided into six groups (n = 5 for each group). […] Moreover, groups 1 and 2 were intragastrically treated with physiological saline (0.9%) at a dose of 1 mL/100 g. […] At the end of the experiment, all rats were euthanized by CO2 inhalation. The serum samples were stored at -70°C until analysis, and liver samples were isolated and stored at -70°C for further analysis, whereas the central part of the right large lobe of the liver was used for histological examination.
(§2) Biotransformation of xenobiotics and endogenous compounds is a crucial step in the absorption and elimination of potentially harmful substances from the human body, a process that could be affected by the levels of pharmacokinetic enzymes and transporter proteins. […]
(§3) Total membrane protein was isolated (in triplicate) from liver tissue according to the Native Membrane Protein Extraction Kit protocol. Subsequently, protein concentrations were determined by applying the BCA Protein Assay Kit. […]

[3] = tested on: OCT1; assay: Expression level of OCT1 in rat liver by UHPLC-MS/MS; assay type: in vivo
Description: as §1, §2, §3

[4] = tested on: NTCP; assay: Expression level of NTCP in rat liver by UHPLC-MS/MS; assay type: in vivo
Description: Male Sprague Dawley rats (230 ± 20 g, 6–8 weeks of age) were purchased from B&K Laboratory Animal, Corp. Ltd. (Shanghai, China) and fed in the Laboratory Animal Center of Shanghai University of Traditional Chinese Medicine. All rats were allowed to acclimatize for 3 days before experimentation. The rats were randomly divided into six groups (n = 5 for each group). […] The rats in groups 4, 5, and 6 were intragastrically administered YCHD every 24 h for 10 consecutive days. The rats in group 3 were orally administered UDCA at a dose of 100 mg/kg every 24 h for 10 consecutive days, which is well-documented to treat induced liver injury and cholestasis ([Chen et al., 2016]; [Cao et al., 2017]). Moreover, groups 1 and 2 were intragastrically treated with physiological saline (0.9%) at a dose of 1 mL/100 g. […] At the end of the experiment, all rats were euthanized by CO2 inhalation. The serum samples were stored at -70°C until analysis, and liver samples were isolated and stored at -70°C for further analysis, whereas the central part of the right large lobe of the liver was used for histological examination. […]

[5] = Control group (normal rats), single oral YCHD 12 g/kg, plasma
[6] = Sprague Dawley, in vivo, Control group (normal rats), single oral YCHD 12 g/kg, plasma
[7] = in vivo, Control group (normal rats), single oral YCHD 12 g/kg, plasma
[8] = Sprague Dawley, Control group (normal rats), single oral YCHD 12 g/kg, plasma
[9] = UDCA group, ANIT-treated rats, mean ± S.D.
[10] = UDCA-treated cholestatic rats, liver, as compared with the control group, p < 0.05
[11] = Sprague Dawley, plasma, po, 12 g/kg, in normal and cholestatic rats after oral administration of YCHD
[12] = plasma, po, 12 g/kg, Control group (normal rats), single oral YCHD 12 g/kg, plasma

Cmax [1, 5] | CL/F [1, 5] | MRT inf [1, 5] | Tmax [1, 11] | Tmax [1, 12] | Structure (SMILES) | AUC(0-∞) [1, 5] | Ka [1, 5] | further results
– | – | – | – | – | COC(=O)C1=COC(OC2OC(CO)C(O)C(O)C2O)C2C(CO)=CC(O)C12 (centres unmarked) [Scandoside methyl ester] | 233687.2 ± 127559.1 µg·min/L | 477.5 ± 133.9 min⁻¹ | Cmax [1, 6]: 127 ± 8.9 ng/mL; Tmax [1, 6]: 0.35 h; CL/F [1, 6]: 184 ± 33 mL/min/kg; MRT inf [1, 6]: 6.08 h; Vd/F [1, 7]: 62 ± 30.8 L/kg; half-life [1, 7]: 3.82 ± 1.76 h
– | – | – | – | – | C[C@H](CCC(=O)O)[C@H]1CC[C@H]2[C@@H]3[C@@H](O)C[C@@H]4C[C@H](O)CC[C@]4(C)[C@H]3CC[C@]12C [UDCA, Ursodeoxycholic acid] | – | – | Bsep expression level in rat liver [2, 9]: 18.1±2.56 fmol/μg protein; BSEP level, fold higher [2, 10]: 1.2 fold; Oct1 expression level in rat liver [3, 9]: 2.22±0.59 fmol/μg protein; OCT1 level, fold higher [3, 10]: 2.1 fold; Ntcp expression level in rat liver [4, 9]: 4.22±1.51 fmol/μg protein; NTCP level, fold higher [4, 10]: 2.2 fold
106 ± 3.9 ng/mL | 1040 ± 56 mL/min/kg | 2.13 h | ≤ 0.45 h | 0.35 h | COC(=O)C1=CO[C@@H](O[C@@H]2O[C@H](CO[C@@H]3O[C@H](CO)[C@@H](O)[C@H](O)[C@H]3O)[C@@H](O)[C@H](O)[C@H]2O)[C@@H]2C(CO)=CC[C@H]12 [genipin-1-β-D-gentiobiodide, Genipin-1-β-D-gentiobiodide] | 38557.0 ± 20175.1 µg·min/L | 95.5 ± 16.2 min⁻¹ | Vd/F [1, 8]: 170 ± 52.3 L/kg; half-life [1, 8]: 1.93 ± 0.538 h
1580 ± 133 ng/mL | – | 4.82 h | ≤ 0.45 h | 0.25 h | CC(=O)c1ccc(O)cc1 [4-hydroxyacetophenone, 4-Hydroxyacetophenone] | 192358.2 ± 102858.3 µg·min/L | 406.1 ± 333.9 min⁻¹ | half-life [1, 5]: 13.8 ± 13.6 h
3040 ± 397 ng/mL | 41 ± 6 mL/min/kg | 2.01 h | ≤ 0.45 h | 0.25 h | O=C(O)c1cc(O)c2c(c1)C(=O)c1cccc(O)c1C2=O [Rhein] | 874792.3 ± 503744.0 µg·min/L | 4443.6 ± 454.1 min⁻¹ | Vd/F [1, 5]: 3.79 ± 0.53 L/kg; half-life [1, 5]: 1.06 ± 0.00833 h
– | – | – | – | – | COC(=O)C1=CO[C@@H](O[C@@H]2O[C@H](CO)[C@@H](O)[C@H](O)[C@H]2O)[C@@H]2C(CO)=CC[C@H]12 [Geniposide] | 384279.8 ± 184237.0 µg·min/L | 702.9 ± 413.6 min⁻¹ | Tmax ([1]; Sprague Dawley, in vivo, 12 g/kg, in normal and cholestatic rats after oral administration of YCHD): ≤ 0.45 h; Cmax [1, 7]: 524 ± 59.4 ng/mL; Tmax [1, 7]: 0.3 h; CL/F [1, 7]: 122 ± 22 mL/min/kg; MRT inf [1, 7]: 3.36 h; Vd/F [1, 7]: 21.1 ± 12 L/kg; half-life [1, 7]: 1.9 ± 0.765 h

Structure (SMILES) | Cmax [1, 5] | CL/F [1, 5] | MRT inf [1, 5] | Tmax [1, 11] | Tmax [1, 12] | AUC(0-∞) [1, 5] | Ka [1, 5] | further results
O=C(O)C1=CO[C@@H](O[C@@H]2O[C@H](CO)[C@@H](O)[C@H](O)[C@H]2O)[C@@H]2C(CO)=CC[C@H]12 [Geniposidic acid] | 449 ± 34.2 ng/mL | 30 ± 4 mL/min/kg | 5.93 h | – | – | 1374849.8 ± 734718.1 µg·min/L | 11255.3 ± 11024.4 min⁻¹ | Vd/F [1, 8]: 8.6 ± 3.2 L/kg; half-life [1, 8]: 3.23 ± 0.755 h; Tmax [1, 7]: 4.4 h
